Assay results as given in the NIST ThermoML archive (doi:10.1021/je700339f).

Assay: xn = mol fraction of the nth substance listed
Details: 298 K, Liquid

ClCCCCCCCl [1,6-dichlorohexane] + CC(=O)N(C)C
mass density [kg/m3]
Details | x2 = 0.1002 | x2 = 0.1985 | x2 = 0.3002 | x2 = 0.404 | x2 = 0.4943 | x2 = 0.6007 | x2 = 0.7006 | x2 = 0.8012 | x2 = 0.8994
5000 kPa | – | – | 1037.9 | 1026.5 | 1015.6 | 1002 | 988.5 | 973.5 | 957.6
5500 kPa | 1058.2 | 1049 | 1038.2 | 1026.8 | 1015.9 | 1002.3 | 988.9 | 973.8 | 957.9
6000 kPa | 1058.6 | 1049.3 | 1038.5 | 1027.1 | 1016.3 | 1002.6 | 989.1 | 974.2 | 958.2
6500 kPa | 1058.9 | 1049.6 | 1038.9 | 1027.4 | 1016.6 | 1002.9 | 989.5 | 974.4 | 958.5
7000 kPa | 1059.3 | 1049.9 | 1039.2 | 1027.7 | 1016.9 | 1003.3 | 989.7 | 974.7 | 958.8
7500 kPa | 1059.6 | 1050.2 | 1039.5 | 1028.1 | 1017.2 | 1003.6 | 990.1 | 975 | 959
8000 kPa | 1060 | 1050.6 | 1039.9 | 1028.4 | 1017.4 | 1003.9 | 990.4 | 975.4 | 959.4
8500 kPa | 1060.3 | 1050.9 | 1040.2 | 1028.7 | 1017.8 | 1004.2 | 990.6 | 975.7 | 959.7
9000 kPa | 1060.6 | 1051.2 | 1040.6 | 1029.1 | 1018.1 | 1004.5 | 991 | 976 | 960
9500 kPa | 1061 | 1051.6 | 1040.9 | 1029.4 | 1018.5 | 1004.8 | 991.2 | 976.3 | 960.3
10000 kPa | 1061.4 | 1052 | 1041.3 | 1029.8 | – | – | – | – | –
